Peptide text beside a SMILES is read from it. * marks the point of attachment. NH(Rh110(N'-COOEt)) = CCOC(=O)Nc1ccc2c(c1)Oc1cc(N*)ccc1C21OC(=O)c2ccccc21

What all share (assay type): biochemical
Conditions in all cases: 10 μM substrate, 37° C.

For assay [1], the target named is T1, recombinant human caspase-7 (Homo sapiens, UniProt P55210).
T1 sequence (P55210 24-198 limits assumed): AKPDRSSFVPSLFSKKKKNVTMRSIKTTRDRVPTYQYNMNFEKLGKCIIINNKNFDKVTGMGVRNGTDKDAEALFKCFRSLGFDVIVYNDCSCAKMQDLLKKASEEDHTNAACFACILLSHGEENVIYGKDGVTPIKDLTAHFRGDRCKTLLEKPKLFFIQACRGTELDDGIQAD
T1 sequence (P55210 207-303 limits assumed): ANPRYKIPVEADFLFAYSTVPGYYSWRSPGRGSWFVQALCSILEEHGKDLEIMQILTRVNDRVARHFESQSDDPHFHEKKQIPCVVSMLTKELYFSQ
Description: Cleavage of caspase-8 substrate by recombinant human caspase-7. How it is done: (§1) N-Ac-LEVD-N-ethoxycarbonyl R110 SEQ ID NO:9 was assayed by recombinant human caspase-3, 6, 7, and 8. The assays were carried out at 37° C. in 96-well plates in a 100 μL incubation containing recombinant human caspase, 10 μM of N-Ac-LEVD-N′-ethoxycarbonyl R110 SEQ ID NO:9, and caspase assay buffer (40 mM PIPES, pH 7.2; 100 mM NaCl; 10% sucrose; 0.1% CHAPS; 1 mM EDTA; 10 mM DTT). At the end of the incubation period, the fluorescence was determined on a Bio-Tek FL500 fluorescence microplate reader using excitation and emission wavelengths of 485 and 530 nm, respectively. In order to correct for the endogenous fluorescence of the uncleaved substrate, controls were run which consisted of samples containing 10 μM N-Ac-LEVD-N′-ethoxycarbonyl R110 SEQ ID NO:9 without enzyme (“enzyme blanks”). Additional controls included samples containing the caspase inhibitor Ac-DEVD-CHO SEQ ID NO:5. […] Caspase-3 cleaved N-Ac-LEVD-N′-ethoxycarbonyl R110 SEQ ID NO:9 less efficiently, yielding a signal that was about 5-fold above the enzyme blank value.

For assay [2], the target named is recombinant human caspase-8 (Homo sapiens, UniProt Q14790). Description: Cleavage of caspase-8 substrate by recombinant human caspase-8. How it is done: as §1
recombinant human caspase-8, sequence (Q14790 217-374 limits assumed): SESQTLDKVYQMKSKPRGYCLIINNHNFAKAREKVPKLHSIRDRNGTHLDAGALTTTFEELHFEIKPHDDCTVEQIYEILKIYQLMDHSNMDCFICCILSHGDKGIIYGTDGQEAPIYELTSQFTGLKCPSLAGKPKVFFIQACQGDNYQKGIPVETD
recombinant human caspase-8, sequence (Q14790 385-479 limits assumed): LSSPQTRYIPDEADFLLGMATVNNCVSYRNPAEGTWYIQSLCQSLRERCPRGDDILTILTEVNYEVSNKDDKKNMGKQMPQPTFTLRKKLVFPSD
For assay [3], the target named is T2, recombinant human caspase-3 (Homo sapiens, UniProt P42574).
T2 sequence (P42574 29-175 limits assumed): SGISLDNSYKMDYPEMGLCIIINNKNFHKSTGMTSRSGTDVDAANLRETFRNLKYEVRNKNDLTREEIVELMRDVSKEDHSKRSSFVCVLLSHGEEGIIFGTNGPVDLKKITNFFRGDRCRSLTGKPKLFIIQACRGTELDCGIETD
T2 sequence (P42574 176-277 limits assumed): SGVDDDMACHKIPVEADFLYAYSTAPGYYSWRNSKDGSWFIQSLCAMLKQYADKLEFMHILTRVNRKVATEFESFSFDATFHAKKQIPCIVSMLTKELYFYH
Description: Cleavage of caspase-8 substrate by recombinant human caspase-3. The method, then:
as §1

Assay [4] has as its target T3, recombinant human caspase-6 (Homo sapiens, UniProt P55212).
T3 sequence (P55212 24-179 limits assumed): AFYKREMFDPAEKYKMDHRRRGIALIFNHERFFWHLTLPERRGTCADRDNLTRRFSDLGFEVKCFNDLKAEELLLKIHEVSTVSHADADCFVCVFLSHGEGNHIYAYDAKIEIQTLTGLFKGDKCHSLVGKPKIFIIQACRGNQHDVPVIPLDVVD
T3 sequence (P55212 194-293 limits assumed): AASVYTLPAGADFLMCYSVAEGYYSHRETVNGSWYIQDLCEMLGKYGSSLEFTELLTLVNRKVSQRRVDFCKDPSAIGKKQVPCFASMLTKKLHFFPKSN
Description: Cleavage of caspase-8 substrate by recombinant human caspase-6. The method, then:
as §1

Take `CCOC(=O)Nc1ccc2c(c1)Oc1cc(NC(=O)[C@H](CC(=O)O)NC(=O)[C@@H](NC(=O)[C@H](CCC(=O)O)NC(=O)[C@H](CC(C)C)NC(C)=O)C(C)C)ccc1C21OC(=O)c2ccccc21` (stereo partly drawn) [N-Ac-LEVD-N′-ethoxycarbonyl R110, N-(Ac-Leu-Glu-Val-Asp)-N′-ethoxycarbonyl-Rhodamine 110] (Ac-LEVD-{NH(Rh110(N'-COOEt))}): the fluorescent signal result in assay [1] is recorded as “virtually no signal”. For the same molecule, the “signal to background ratio” value in assay [2] is “about 26”; in assay [4], “about 13”. Further, in assay [3], the “signal above the enzyme blank value” was “about 5 fold”.

(Values after patent publication US6759207B2, “Fluorogenic or fluorescent reporter molecules and their applications for whole-cell fluorescence screening assays for caspases and other enzymes and the use thereof” (Cytovia, Inc., priority 1997, dated 2004).)
